One may read the inhibition as the share of the control response that was lost under treatment.

Here are results for eight compounds from US6603046B1, “Bis-aromatic a,β-unsaturated ketones” (Lica Pharmaceuticals A/S, priority 1992, dated 2003).

The test system of one test is Eimeria tenella. As to the kind of experiment: Anticoccidial activity in chickens infected with Eimeria tenella (Example 28). It counts as in vivo. The settings on record: for feed consumption after 7 days of treatment / feed consumption after 14 days of treatment: amount of feed consumed per kg chicken weight gain, doses as Table 28.1; for Weight gain in 7 days after initiation of treatment / Weight gain in 14 days after initiation of treatment: in feed: salinomycin 70 ppm, 2,5 m4′ac and 2,4 mc 30 mg/kg/day, licochalcone A 10 mg/kg/day; for Mortality: number of chickens, groups of 35, licochalcone A 20.

For a further test, the system named is P. yoelii strain YM. As to the kind of experiment: P. yoelii strain YM infection in mice, parasitemia and mortality (Example 16). Particulars: Table 16.12. Type of test: in vivo, BALB/c mice.
Test [1] deals with chloroquine resistant P. falciparum DD2 strain. As to the kind of experiment: In vitro growth of P. falciparum DD2, 3H-hypoxanthine uptake (Example 15). It counts as cell-based, Plasmodium falciparum. The settings on record: title: percentage inhibition of 3H-hypoxanthine uptake.
Another test concerns P. falciparum. Nature of the test: P. falciparum growth in vitro (Table 14.1, strain not stated). Particulars: Plasmodium falciparum; for inhibition at 1 µg/mL: 1 μg/ml; for inhibition at 5 µg/mL: 5 μg/ml; for inhibition at 10 µg/mL: 10 μg/ml. Type of test: cell-based. The protocol: The P. falciparum experimental setup was as described in Example 15.
Testing of the effect of drugs and serum on the in vitro growth of the parasites. The experiments in which compounds were tested for their ability to inhibit parasite growth were performed by a modification of the method originally described by Jensen et al. (1982). Fifty μl of parasitized erythrocytes (parasitemia approximately 1%) in a concentration of 5×10^8/ml and 50 μl of RPMI medium containing different concentrations of the test compound was added to each well of a 96 well flat-bottomed microtiter plate (Nunc). The cultures were then incubated for 48 hours, 24 hours before termination of the culture adding 20 μl of 3-H-hypoxanthine (40 uCi/ml) (New England Nuclear, Boston, Mass., USA) was added to each well. The cultures were then harvested onto glass fiber filters using a Skatron cell harvester (Skatron, Lierbyen, Norway), and the incorporation of 3-H-hypoxanthine into the DNA of dividing parasites was determined by liquid scintillation spectrometry.

The next test relates to L. major promastigotes. Nature of the test: L. major promastigotes from 4-days cultures, 3H-thymidine uptake (Examples 5, 14). Type of test: cell-based, Leishmania major. The settings on record: Leishmania major, Table 14.1, read-out: percentage inhibition of promastigotes (upper figure); for inhibition at 0.5 µg/mL: 0.5 μg/ml; for inhibition at 1 µg/mL: 1 μg/ml; for inhibition at 5 µg/mL: 5 μg/ml; for inhibition at 10 µg/mL: 10 μg/ml. The method, boiled down:
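Promastigotes harvested on day 4 of culture were exposed to compound, then pulsed with 100 μC 3H-thymidine for a further 18 h. Cells were collected on filter paper, washed, and incorporated radioactivity counted by scintillation.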

The next test relates to human lymphocytes. Nature of the test: Lymphocyte Proliferation Assay, 3H-thymidine incorporation (Example 13). Particulars: Homo sapiens, Lymphocyte, read-out: inhibition of lymphocytes (lower figure). On the technique in general: Dividing cells build labelled thymidine or BrdU into new DNA.
Setting [2] is: D + 5, i.p. 40 mg/kg twice daily.
The mark [3] stands for this setting: D + 6, i.p. 10 mg/kg twice daily.
Setting [4] is: D + 6, i.p. 20 mg/kg twice daily.
The mark [5] stands for this setting: D + 6, i.p. 30 mg/kg twice daily.
[6] abbreviates: D + 6, i.p. 40 mg/kg twice daily.
Setting [7] is: D + 8, i.p. 20 mg/kg twice daily.
Setting [8] is: D + 8, i.p. 30 mg/kg twice daily.
Setting [9] is: D + 10, i.p. 30 mg/kg twice daily.
Setting [10] is: 0.5 μg/ml, read-out: inhibition of malaria parasites (middle figure) (converted).
The mark [11] stands for this setting: read-out: inhibition of malaria parasites (middle figure) (converted).

Each structure is given as a SMILES string. Where two headings read alike, the source gives them in different places. Marks after values point to notes of the source that are not given here.

Turning to `COc1ccc(/C=C/C(=O)c2ccccc2)c(OC)c1` [2,4mc, 2,4-dimethoxychalcone], the “feed consumption after 7 days of treatment” value (from here on “feed consumption after 7 days”) in the test with Eimeria tenella was determined as 1.30. Further, the “feed consumption after 14 days of treatment” value (“feed consumption after 14 days” below) in the test on Eimeria tenella amounted to 1.48. In addition, the “Weight gain in 7 days after initiation of treatment” value (“Weight gain in 7 days” below) with Eimeria tenella is recorded as 380 grams per chicken. The “Weight gain in 14 days after initiation of treatment” value (“Weight gain in 14 days” for short) with Eimeria tenella is recorded as 803^ grams per chicken. In the test with Eimeria tenella, this compound came in with a Mortality of 1. For the same compound, the “% parasitemia” value is reported as 78% in the test with P. yoelii strain YM (setting [2]); 85% in the test on P. yoelii strain YM (setting [4]); 29% with P. yoelii strain YM (setting [5]); 15% with P. yoelii strain YM (setting [8]); 65% with P. yoelii strain YM (setting [9]). In addition, the “mortality (no. of dead mice/total no. of tested mice)” value in the test on P. yoelii strain YM (setting [2]) was 4/5; in the test with P. yoelii strain YM (setting [3]), “(5/5)”; in the test on P. yoelii strain YM (setting [4]), 4/5; with P. yoelii strain YM (setting [5]), 3/5; with P. yoelii strain YM (setting [6]) it was “(5/5)”; in the test on P. yoelii strain YM (setting [7]), “(5/5)”. The “mortality (no. of dead mice/total no. of tested mice)” value with P. yoelii strain YM (setting [8]) is 4/5; with P. yoelii strain YM (setting [9]), 4/5; in the test with P. yoelii strain YM (D + 12, i.p. 30 mg/kg twice daily) it was “(5/5)”.

Consider `C=CCOc1ccc(C(=O)/C=C/c2cc(OC)ccc2OC)cc1` [2,5-Dimethoxy-4′-allyloxychalcone, 2,5-dimethoxy-4′-prop-2enyloxychalcone], for which the “Growth in % of control (mean ± SEM)” value is 15.8 ± 13.2% in test [1] (0.5 μg/ml), 12.1 ± 13.7% in test [1] (1 μg/ml), 45.3 ± 7.2% in test [1] (5 μg/ml) and 74.4 ± 4.4% in test [1] (10 μg/ml). The “feed consumption after 7 days” value in the test with Eimeria tenella amounted to 1.31. In the test with Eimeria tenella, the “feed consumption after 14 days” value was found to be 1.54. The “Weight gain in 7 days” value with Eimeria tenella came out at 366 grams per chicken. Also, the “Weight gain in 14 days” value in the test with Eimeria tenella was 804^ grams per chicken. The same compound registered a Mortality in the test with Eimeria tenella of 2. In addition, the “mortality (no. of dead mice/total no. of tested mice)” value with P. yoelii strain YM (setting [3]) is on record as “(5/5)”; in the test on P. yoelii strain YM (setting [4]) it was 4/5; with P. yoelii strain YM (setting [5]), 3/5; in the test with P. yoelii strain YM (setting [6]), “(5/5)”; in the test with P. yoelii strain YM (setting [7]), “(5/5)”; in the test on P. yoelii strain YM (setting [8]), 4/5. Moreover, the “mortality (no. of dead mice/total no. of tested mice)” value in the test on P. yoelii strain YM (setting [9]) was “(5/5)”. In addition, the “% parasitemia” value in the test on P. yoelii strain YM (setting [4]) was found to be 79%; in the test on P. yoelii strain YM (setting [5]), 62%; with P. yoelii strain YM (setting [8]), 78%.

For `C=CCOc1ccc(C(=O)/C=C/c2cccc(OC)c2OC)cc1` [drawing 81], the inhibition at 0.5 µg/mL with P. falciparum (setting [10]) is 0%. Further, in the test on P. falciparum (setting [11]), the inhibition at 1 µg/mL was 17.2%, the inhibition at 5 µg/mL was 68.2% and the inhibition at 10 µg/mL was 73.1%. Moreover, in the test on L. major promastigotes, the inhibition at 0.5 µg/mL was 13.9 ± 12.9%, the inhibition at 1 µg/mL was found to be 20.7 ± 17.1%, the inhibition at 5 µg/mL was 82.1 ± 13.6% and the inhibition at 10 µg/mL is 98.1 ± 1%. In addition, in the test on human lymphocytes, the inhibition at 0.5 µg/mL is 10.8%, the inhibition at 1 µg/mL was 14.2%, the inhibition at 5 µg/mL was 8.8% and the inhibition at 10 µg/mL is 13.8%.

On to `C=CCOc1ccc(C(=O)/C=C/c2ccc(OC)cc2OC)cc1` [drawing 82], for which the inhibition at 0.5 µg/mL with P. falciparum (setting [10]) was 31.1%. Also, in the test on P. falciparum (setting [11]), the inhibition at 1 µg/mL was 36.5%, the inhibition at 5 µg/mL was 74.4% and the inhibition at 10 µg/mL is 97.3%. In the test on L. major promastigotes, the inhibition at 0.5 µg/mL amounted to 35.4%, the inhibition at 1 µg/mL came to 62.8%, the inhibition at 5 µg/mL stood at 71.4% and the inhibition at 10 µg/mL was 85.4%. Besides, in the test with human lymphocytes, the inhibition at 0.5 µg/mL amounted to 0%, the inhibition at 1 µg/mL was 1.7%, the inhibition at 5 µg/mL was 5.9% and the inhibition at 10 µg/mL came out at 5.5%.

With `C=CCOc1ccc(C(=O)/C=C/c2c(OC)cccc2OC)cc1` [drawing 83], the inhibition at 0.5 µg/mL in the test on P. falciparum (setting [10]) was 0%. Further, in the test with P. falciparum (setting [11]), the inhibition at 1 µg/mL is 27.4%, the inhibition at 5 µg/mL was 39.7% and the inhibition at 10 µg/mL is 65.7%. In the test on L. major promastigotes, the inhibition at 0.5 µg/mL stood at 11.3 ± 9.8%, the inhibition at 1 µg/mL stood at 16.3 ± 12.4%, the inhibition at 5 µg/mL was determined as 63.7 ± 24.2% and the inhibition at 10 µg/mL is 91.1 ± 4.1%. Also, in the test with human lymphocytes, the inhibition at 0.5 µg/mL is 1%, the inhibition at 1 µg/mL is 1.3%, the inhibition at 5 µg/mL was determined as 0% and the inhibition at 10 µg/mL worked out at 0%.

Take `C=CCOc1ccc(C(=O)/C=C/c2ccc(OC)c(OC)c2)cc1` [drawing 84]: the inhibition at 0.5 µg/mL in the test with P. falciparum (read-out: inhibition of malaria parasites (middle figure)) is 2.9%. Moreover, in the test on P. falciparum (setting [11]), the inhibition at 1 µg/mL is 11.4%, the inhibition at 5 µg/mL is 22.8% and the inhibition at 10 µg/mL was 68%. In addition, in the test on L. major promastigotes, the inhibition at 0.5 µg/mL was 15.2 ± 11.3%, the inhibition at 1 µg/mL worked out at 30.4 ± 23.2%, the inhibition at 5 µg/mL stood at 70.4 ± 15.2% and the inhibition at 10 µg/mL amounted to 90.8 ± 9.7%. For the same compound, in the test on human lymphocytes, the inhibition at 1 µg/mL amounted to 0%, the inhibition at 5 µg/mL amounted to 0% and the inhibition at 10 µg/mL is 15.6%.

In the case of `C=CCOc1ccc(C(=O)/C=C/c2cc(OC)cc(OC)c2)cc1` [drawing 85], the inhibition at 0.5 µg/mL with P. falciparum (setting [10]) is 13.8%. For the same compound, in the test with P. falciparum (setting [11]), the inhibition at 1 µg/mL is 15.3%, the inhibition at 5 µg/mL is 74.3% and the inhibition at 10 µg/mL was 98.6%. Moreover, in the test on L. major promastigotes, the inhibition at 0.5 µg/mL is 10.6 ± 10.7%, the inhibition at 1 µg/mL was found to be 27.6 ± 23.3%, the inhibition at 5 µg/mL came out at 82.8 ± 10% and the inhibition at 10 µg/mL turned out to be 98.3 ± 0.9%. In the test on human lymphocytes, the inhibition at 0.5 µg/mL was found to be 0%, the inhibition at 1 µg/mL was determined as 0%, the inhibition at 5 µg/mL was 4.6% and the inhibition at 10 µg/mL is 25.4%.

As to `CC[C@@H](C(=O)[C@@H](C)[C@@H](O)[C@H](C)[C@@H]1O[C@@H]([C@@H](CC)C(=O)O)CC[C@@H]1C)[C@H]1O[C@]2(C=C[C@@H](O)[C@]3(CC[C@@](C)([C@H]4CC[C@](O)(CC)[C@H](C)O4)O3)O2)[C@H](C)C[C@@H]1C` [salinomycin, reference compound], in the test on Eimeria tenella, the “feed consumption after 7 days” value is listed as 1.30, the “feed consumption after 14 days” value is on record as 1.44, the “Weight gain in 7 days” value was 425 grams per chicken and the “Weight gain in 14 days” value is given as 900^a grams per chicken. Further, the Mortality with Eimeria tenella stood at 0. Further, the “Difference in weight gain to group 5 (control infected) after treatment for 14 days” value in the test with Eimeria tenella (normal variation ±2%) is “^aDifference between groups 1 (standard feed) and 5 (control infected) after treatment for 14 days is 12%”.
